Measurements reported in patent US7317014B2, “Bio-active pyrimidine molecules” (Orchid Research Laboratories, Ltd., priority 2002, dated 2008).

What was measured:
Male Wistar rats = assay: Rat carrageenan paw edema test; assay type: in vivo; settings: oral
COX-2 = biological target: T1, COX-2 (Homo sapiens, UniProt P35354); assay: Human whole blood assay, COX-2 inhibition (PGE2 after LPS); assay type: cell-based; settings: Conc. 0.1 μM, 24 h
T1 construct: incubation of human blood with lipopolysaccharide (LPS), which induces COX-2 production in the blood; endogenous in cells; host or cells: fresh human whole blood from male volunteers, LPS-stimulated, aspirin-pretreated
T1 sequence (P35354 18-604): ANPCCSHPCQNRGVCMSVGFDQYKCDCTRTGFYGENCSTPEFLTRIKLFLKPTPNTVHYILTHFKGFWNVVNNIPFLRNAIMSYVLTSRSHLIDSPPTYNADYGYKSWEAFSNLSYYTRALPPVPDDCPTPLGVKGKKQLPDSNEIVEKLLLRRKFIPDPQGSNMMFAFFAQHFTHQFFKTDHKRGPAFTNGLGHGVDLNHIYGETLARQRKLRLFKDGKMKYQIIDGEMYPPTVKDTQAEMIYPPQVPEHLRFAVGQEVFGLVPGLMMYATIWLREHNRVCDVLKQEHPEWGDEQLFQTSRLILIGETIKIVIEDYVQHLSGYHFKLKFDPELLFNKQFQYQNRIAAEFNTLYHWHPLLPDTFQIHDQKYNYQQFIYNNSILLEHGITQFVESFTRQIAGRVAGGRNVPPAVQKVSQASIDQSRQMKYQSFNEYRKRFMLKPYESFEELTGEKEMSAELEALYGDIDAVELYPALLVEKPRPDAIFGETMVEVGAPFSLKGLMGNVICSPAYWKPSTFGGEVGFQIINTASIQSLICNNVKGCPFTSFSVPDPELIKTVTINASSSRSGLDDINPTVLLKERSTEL
Procedure: The COX-2 inhibition activity of the compounds illustrated in the examples was determined by the following method. Human Whole Blood Assay Human whole blood provides a protein and cell rich milieu appropriate for the study of biochemical efficacy of anti-inflammatory compounds such as selective COX-2 inhibitors. […] This is correlating with the observation that COX-2 inhibitors have no effect on prostaglandin E2 (PGE2) production in normal blood. These inhibitors are active only after incubation of human blood with lipopolysaccharide (LPS), which induces COX-2 production in the blood. Method Fresh blood was collected in tubes containing potassium EDTA by vein puncture from male volunteers. The subjects should have no apparent inflammatory conditions and not taken NSAIDs for atleast 7 days prior to blood collection. Blood was treated with aspirin in vitro (10 μg/ml, at time zero) to inactivate COX-1, and then with LPS (10 μg/ml) along with test agents or vehicle. The blood was incubated for 24 h at 37° C., after which the tubes were centrifuged, the plasma was separated and stored at −80° C. (J. Pharmacol. Exp. Ther., 271, 1705, 1994; Proc. Natl. Acad. Sci. USA., 96, 7563, 1999). The plasma was assayed for PGE2 using Cayman ELISA kit as per the procedure outlined by the manufacturer (Cayman Chemicals, Ann Arbor, USA). The plasma was also tested for TNF-α, IL-1β, and IL-6 using appropriate human ELISA kit as per the procedure of manufacturer (Cayman Chemicals, Ann Arbor, USA).

TNF-α = TNF-α production from LPS-stimulated human monocytes (ELISA); assay type: cell-based; settings: Monocyte, Conc. 1 μM
NCI-H460 = assay: DTP human tumor cell line one-dose prescreen, NCI-H460; assay type: cell-based; settings: Concentration (100 μm), Lung NCI-H460, test/control (T/C)
Procedure: (§1) The current assay utilizes a 384 well plate format and fluorescent staining technologies resulting in greater screening capacity for testing of synthetic samples. Cell Lines The cell lines of the cancer screening panel are grown in RPMI 1640 medium containing 5% fetal bovine serum and 2 mM L-glutamine. For a typical screening experiment, cells are inoculated into 96 well microtiter plates in 100 μL. After cell inoculation, the microtiter plates are incubated at 37° C., 5% CO2, 95% air and 100% relative humidity for 24 h prior to addition of experimental drugs. The cells are plated a densities of 5000 cells/well (MCF7), 1000 cells/well (NCI-H460), and 7500 cells/well (SF-268) to allow for varying doubling time of the cell lines. Each plate contains all three cell lines, a series of dilutions of standard agents, total kill wells and appropriate controls. Plates are incubated under standard conditions for 24 hours prior to addition of experimental compounds or extracts. Addition of Experimental Agents (Pure Compounds) […] Two standard drugs, meaning that their activities against the cell lines are well documented, are tested against each cell line: NSC 19893 (5-FU) and NSC 123127 (Adriamycin). Endpoint Measurement After compound addition, plates are incubated at standard conditions for ?hours, 10 μl/well Alamar Blue is added and the plates are incubated for an additional 4 hours. Fluorescence is measured using an excitation wavelength of 530 nm and an emission wavelength of 590 nm. Calculation of Percent Test Cell Growth/Control (Untreated) Cell Growth (T/C) Calculation of Percent Test Cell Growth/Control (Untreated) Cell Growth (T/C) Percent growth is calculated on a plate-by-plate basis for test wells relative to control wells. Percent Growth is expressed as the ratio of fluorescence of the test well to the average fluorescence of the control wells ×100.

MCF7 = assay: DTP human tumor cell line one-dose prescreen, MCF7; assay type: cell-based; settings: Concentration (100 μm), Breast MCF7, test/control (T/C)
Procedure: as §1

SF-268 = assay: DTP human tumor cell line one-dose prescreen, SF-268; assay type: cell-based; settings: Concentration (100 μm), CNS SF-268, test/control (T/C)
Procedure: as §1

inhibition at 0.1 µM (COX-2): 51.9%
melting point: 195 to 197 °C
Compound: CS(=O)(=O)c1ccc(-c2nc(C(F)(F)F)nc(Cl)c2-c2ccc(F)cc2)cc1 [Example 6, 4-chloro-5-(4-fluorophenyl)-6-[4-(methylsulfonyl)phenyl]-2-(trifluoromethyl)pyrimidine]
Rat Paw Edema model % Inhibition (10 mg/kg body weight) (Male Wistar rats): 64%
inhibition at 1 µM (TNF-α): 51.5%
Percentage Growth Lung NCI-H460 (NCI-H460): 0
Percentage Growth Breast MCF7 (MCF7): 0
Percentage Growth CNS SF-268 (SF-268): 12
